Assays:
[1] = target: T1, PIP4K2A (full length protein, SignalChem) (Homo sapiens, UniProt P48426); experiment: Kinase Assay PIP4K2 A (Sprint); ADP-Glo biochemical assay; settings: Table 2; compounds listed under IC50 range headings
T1 construct: 4 nM PIP4K2A (full length protein, SignalChem); purchased SignalChem
T1 sequence (P48426 1-406): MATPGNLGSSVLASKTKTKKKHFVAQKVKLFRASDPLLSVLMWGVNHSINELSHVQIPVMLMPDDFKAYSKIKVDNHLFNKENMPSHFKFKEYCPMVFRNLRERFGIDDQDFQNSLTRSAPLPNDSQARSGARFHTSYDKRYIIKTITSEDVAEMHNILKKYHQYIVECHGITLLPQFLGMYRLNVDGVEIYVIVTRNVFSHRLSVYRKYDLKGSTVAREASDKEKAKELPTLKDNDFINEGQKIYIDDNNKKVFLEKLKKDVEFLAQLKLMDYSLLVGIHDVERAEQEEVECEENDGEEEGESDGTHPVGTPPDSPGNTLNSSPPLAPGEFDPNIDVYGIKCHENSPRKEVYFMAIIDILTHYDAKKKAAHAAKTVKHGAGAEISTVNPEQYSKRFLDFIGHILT
Protocol: Dilution series of the compounds were prepared in DMSO at 100 times the final assay concentration (n1=n0/3 in 10 points). The compounds were further diluted to three times the assay concentration in assay buffer (20 mM MOPS pH 7.2, 25 mM magnesium chloride, 0.005% Tween 20). 6 μL of the diluted compounds were added to a 384 well assay plate followed by 9 μL of a mix consisting of 4 nM PIP4K2A (full length protein, SignalChem) and 100 μM PI(5)P diC8 (Tebu-Bio). Enzyme and compounds were pre-incubated at room temperature for 15 min.
Then 3 μL of a solution containing 60 μM ATP (Promega) in assay buffer was added to the wells containing compound and enzyme and mixing was performed by pipetting several times. The reaction was incubated at room temperature for 1 h. Then 18 μL of ADP-Glo™ Reagent (Promega) was added to stop the kinase reaction and deplete the unconsumed ATP, mixing was performed by pipetting several times. The plate was incubated at room temperature for 40 min before addition of 36 μL of Kinase Detection Reagent (Promega) to convert ADP to ATP and introduce luciferase and luciferin to detect ATP. The reaction was incubated at room temperature for 40 min before the luminescence was measured in a in a Victor 3V 1420 multilabel counter (Perkin Elmer).
Percent inhibition of the compounds as compared to dimethyl sulfoxide treated control samples was calculated. Compound concentration versus percent inhibition were fitted to generate IC50 values.

[2] = target: T2, GST tagged PIP4KtypeIIB (Homo sapiens, UniProt P78356); experiment: Trans-FI P kinase assay PIP4K2B (PIP4KtypeIIB inhibition assay); format: biochemical; settings: Table 4; compounds listed under IC50 range headings; 100 uM GTP, 5 nM PIP4KIIB; read-out: Trans-FI P kinase assays: PIP4K2B IC50
T2 construct: made in house; host or cells: E. coli
T2 sequence (P78356 1-416): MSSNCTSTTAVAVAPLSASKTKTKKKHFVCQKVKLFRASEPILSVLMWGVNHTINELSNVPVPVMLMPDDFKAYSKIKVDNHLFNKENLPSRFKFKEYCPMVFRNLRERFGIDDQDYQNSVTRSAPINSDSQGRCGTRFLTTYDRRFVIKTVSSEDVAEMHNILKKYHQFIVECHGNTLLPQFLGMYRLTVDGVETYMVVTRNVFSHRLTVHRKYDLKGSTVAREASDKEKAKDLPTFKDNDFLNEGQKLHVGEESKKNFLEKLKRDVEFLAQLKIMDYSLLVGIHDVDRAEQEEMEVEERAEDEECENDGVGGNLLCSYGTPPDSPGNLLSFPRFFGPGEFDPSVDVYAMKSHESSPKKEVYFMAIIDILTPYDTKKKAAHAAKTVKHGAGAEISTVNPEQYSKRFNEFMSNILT
Description: GST tagged PIP4KtypeIIA and B enzymes were overexpressed in E. Coli and purified to >80% homogeneity. Phosphatidyl inositol-5-phosphate (PI5P, Cat. #850152, Avanti Polar Lipids Inc.) was used as the lipid substrate and phosphatidyl ethanolamine (DOPE 18:1, Cat. #850725, Avanti Polar Lipids Inc.) was used as the carrier lipid for assays. Ultrapure ATP and GTP was purchased from Bellbrooke Labs. ADP Glo reagents were obtained from Promega. Transcreener FI reagent was obtained from Bellbrooke labs.
1. HEPES buffer mix: 200 mM HEPES pH 7.4, 50 mM MgCl2, 0.05% v/v triton×100
2. HNE buffer: 20 mM HEPES, pH 7.4, 100 mM NaCl, 0.5 mM EGTA
3. H:E buffer: 30 mM HEPES, pH 7.4, 1 mM EGTA
GST-tagged PIP4KtypeIIB (3.4 uL, 2.77 mg/mL) was diluted to 5 mL using HNE buffer to yield 5× enzyme stock (25 nM)
Lipid Preparation: In a 10 mL pyrex glass vial, lug of PI5P and lug of DOPE were suspended in 2.5 mL of HEPES buffer mix and 2.5 mL of H:E buffer. The contents were mixed and sonicated for 3 min to yield a translucent lipid stock.
Compound Preparation: Compounds were stored as 5 mM stocks in neat DMSO as room temperature in glass vials. 5 mM stocks were diluted to 2 mM and then serially diluted (3×) in neat DMSO in 96 well polypropylene plates. From the serially diluted stocks, 3 uL was delivered into 250 uL of 25% DMSO (in water) to generate 5× compound stocks. Typically, the highest compound conc. was 24 uM.
The assay volume was kept at 25 uL. To each well of the reaction plate, 10 uL of lipid stock (1:1 ratio PI5P:DOPE) was delivered. This was followed by the addition of 5 uL of compound in 25% DMSO. Then, to each well, 5 uL of 25 nM (5×) typeIIB enzyme was delivered. The contents were mixed well and incubated for 1 h at 27 C. After 1 h, reaction was initiated by adding 5 uL of 500 uM GTP and the contents were mixed well with a multi-channel pipetteman. The final concentration of the reagents are as follows: 50 mM HEPES, pH 7.3, 10 mM MgCl2, 20 mM NaCl, 0.01% v/v triton-X100, 5% DMSO, 100 uM GTP, 80 uM (2 ug) PI5P, 2 ug DOPE, and 5 nM PIP4KIIB Typically, the highest conc. of compounds was 4.8 uM and the lowest conc. was 0.
After 2 h, the reaction was quenched by adding 25 uL of transcreener FI reagent. The contents were incubated at RT for 1 h and the Fluorescence (Ex: 584 Em: 623) was read using Molecular Devices Paradigm plate reader. […] The blanks were averaged and subtracted from all other wells. Using a calibration curve, RFU was converted to uM GDP (product). IC50 was calculated by plotting the residual activity (expressed as % No inhibitor control) vs. log [Inh. conc.] Table 2 represents PI5P4K activity of compounds (Example No.) of the invention arranged in accordance with the inhibition of PIP4K2 A kinase assay.

| SMILES | IC50 [1] [nM] | IC50 [2] [nM] |
| --- | --- | --- |
| Cc1ccc2c(c1)N(C(=O)c1cc3c(-c4cncc(-c5ccc(N6CCCC6=O)cc5)c4)ccnc3[nH]1)CCO2 [Example 325, 1-(4-(5-(2-(6-methyl-3,4-dihydro-2H-benzo[b][1,4]oxazine-4-carbonyl)-1H-pyrrolo[2,3-b]pyridin-4-yl)pyridin-3-yl)phenyl)pyrrolidin-2-one] | 5 to 100 | 100 to 1000 |
| Cc1ccc2nc(CNC(=O)c3cc4c(-c5cncc(-c6ccc(N7CCCC7=O)cc6)c5)ccnc4[nH]3)[nH]c2c1 [Example 320, N-((6-methyl-1H-benzo[d]imidazol-2-yl)methyl)-4-(5-(4-(2-oxopyrrolidin-1-yl)phenyl)pyridin-3-yl)-1H-pyrrolo[2,3-b]pyridine-2-carboxamide] | 1000 to 2500 | 100 to 1000 |
| CC[C@H](C)n1cnnc1-c1ccc(-c2cncc(-c3ccnc4c3cc3n4CCN(C)C3=O)c2)cc1 [Example 360, (S)-4-(5-(4-(4-(sec-butyl)-4H-1,2,4-triazol-3-yl)phenyl)pyridin-3-yl)-7-methyl-8,9-dihydropyrido[3′,2′:4,5]pyrrolo[1,2-a]pyrazin-6(7H)-one] | 100 to 1000 | 10 to 100 |
| O=C1CCCN1c1ccc(-c2cncc(-c3ccnc4c3cc3n4CCN(c4ccc5c(n4)OCCO5)C3=O)c2)cc1 [Example 308, 7-(2,3-dihydro-[1,4]dioxino[2,3-b]pyridin-6-yl)-4-(5-(4-(2-oxopyrrolidin-1-yl)phenyl)pyridin-3-yl)-8,9-dihydropyrido[3′,2′:4,5]pyrrolo[1,2-a]pyrazin-6(7H)-one] | 100 to 1000 | 1 to 10 |
| CC(C)c1cnoc1-c1ccc(-c2cncc(-c3ccnc4c3cc3n4CCN(C)C3=O)c2)cc1 [Example 363, 4-(5-(4-(4-isopropylisoxazol-5-yl)phenyl)pyridin-3-yl)-7-methyl-8,9-dihydropyrido[3′,2′:4,5]pyrrolo[1,2-a]pyrazin-6(7H)-one] | 100 to 1000 | 10 to 100 |
| O=C1CCCN1c1ccc(-c2cncc(-c3cnc4ncc(-c5cncnc5)n4c3)c2)cc1 [Example 341, 1-(4-(5-(3-(pyrimidin-5-yl)imidazo[1,2-a]pyrimidin-6-yl)pyridin-3-yl)phenyl)pyrrolidin-2-one] | 1000 to 2500 | 1000 to 2500 |
| Nc1ncc(-c2cnc3ncc(-c4cncc(-c5ccc(N6CCCC6=O)cc5)c4)cn23)cn1 [Example 334, 1-(4-(5-(3-(2-aminopyrimidin-5-yl)imidazo[1,2-a]pyrimidin-6-yl)pyridin-3-yl)phenyl)pyrrolidin-2-one] | 100 to 1000 | 100 to 1000 |

The remaining lines, values ahead:

| IC50 [1] [nM] | IC50 [2] [nM] | SMILES |
| --- | --- | --- |
| < 5000 | 100 to 1000 | Cc1c2n(c3nccc(-c4cncc(-c5ccc(-c6nncn6C6CCC6)cc5)c4)c13)CCN(c1ccccn1)C2=O [Example 356, 4-(5-(4-(4-cyclobutyl-4H-1,2,4-triazol-3-yl)phenyl)pyridin-3-yl)-5-methyl-7-(pyridin-2-yl)-8,9-dihydropyrido[3′,2′:4,5]pyrrolo[1,2-a]pyrazin-6(7H)-one] |
| 100 to 1000 | 100 to 1000 | CN1CCn2c(cc3c(-c4cncc(-c5ccc(N6CCCS6(=O)=O)cc5)c4)ccnc32)C1=O [Example 386, 4-(5-(4-(1,1-dioxidoisothiazolidin-2-yl)phenyl)pyridin-3-yl)-7-methyl-8,9-dihydropyrido[3′,2′:4,5]pyrrolo[1,2-a]pyrazin-6(7H)-one] |
| 1000 to 2500 | 10 to 100 | O=C(Nc1ccccn1)c1cc2c(-c3cncc(-c4ccc(N5CCCC5=O)cc4)c3)ccnc2[nH]1 [Example 312, 4-(5-(4-(2-oxopyrrolidin-1-yl)phenyl)pyridin-3-yl)-N-(pyridin-2-yl)-1H-pyrrolo[2,3-b]pyridine-2-carboxamide] |
| 100 to 1000 | 100 to 1000 | Cn1cc(-c2ccc(N)nc2)c2cc(-c3cncc(-c4ccc(N5CCCC5=O)cc4)c3)cnc21 [Example 347, 1-(4-(5-(3-(6-aminopyridin-3-yl)-1-methyl-1H-pyrrolo[2,3-b]pyridin-5-yl)pyridin-3-yl)phenyl)pyrrolidin-2-one] |
| 2500 to 5000 | 100 to 1000 | CN1CCn2c(cc3c(-c4cncc(-c5ccc(-c6nncn6C6CC(F)(F)C6)cc5)c4)ccnc32)C1=O [Example 394, 4-(5-(4-(4-(3,3-difluorocyclobutyl)-4H-1,2,4-triazol-3-yl)phenyl)pyridin-3-yl)-7-methyl-8,9-dihydropyrido[3′,2′:4,5]pyrrolo[1,2-a]pyrazin-6(7H)-one] |
| 100 to 1000 | 10 to 100 | CC[C@@H](C)n1cnnc1-c1ccc(-c2cncc(-c3ccnc4c3cc3n4CCN(C)C3=O)c2)cc1 [Example 361, (R)-4-(5-(4-(4-(sec-butyl)-4H-1,2,4-triazol-3-yl)phenyl)pyridin-3-yl)-7-methyl-8,9-dihydropyrido[3′,2′:4,5]pyrrolo[1,2-a]pyrazin-6(7H)-one] |
| 100 to 1000 | 100 to 1000 | CC(C)n1cncc1-c1ccc(-c2cncc(-c3ccnc4c3cc3n4CCN(C)C3=O)c2)cc1 [Example 359, 4-(5-(4-(1-isopropyl-1H-imidazol-5-yl)phenyl)pyridin-3-yl)-7-methyl-8,9-dihydropyrido[3′,2′:4,5]pyrrolo[1,2-a]pyrazin-6(7H)-one] |
| 5 to 100 | 10 to 100 | O=C(NCc1cccc2c1B(O)OC2)c1cc2c(-c3cncc(-c4ccc(N5CCCC5=O)cc4)c3)ccnc2[nH]1 [Example 379, N-((1-hydroxy-1,3-dihydrobenzo[c][1,2]oxaborol-7-yl)methyl)-4-(5-(4-(2-oxopyrrolidin-1-yl)phenyl)pyridin-3-yl)-1H-pyrrolo[2,3-b]pyridine-2-carboxamide] |
